{"source": "patent US10813894B2", "about": "“Methods of inhibiting pain” (The Regents of the University of California, priority 2015, dated 2020)", "key": {"sEH": {"target": "T1, sEH (Homo sapiens, UniProt P34913)", "T1 sequence (P34913 1-555)": "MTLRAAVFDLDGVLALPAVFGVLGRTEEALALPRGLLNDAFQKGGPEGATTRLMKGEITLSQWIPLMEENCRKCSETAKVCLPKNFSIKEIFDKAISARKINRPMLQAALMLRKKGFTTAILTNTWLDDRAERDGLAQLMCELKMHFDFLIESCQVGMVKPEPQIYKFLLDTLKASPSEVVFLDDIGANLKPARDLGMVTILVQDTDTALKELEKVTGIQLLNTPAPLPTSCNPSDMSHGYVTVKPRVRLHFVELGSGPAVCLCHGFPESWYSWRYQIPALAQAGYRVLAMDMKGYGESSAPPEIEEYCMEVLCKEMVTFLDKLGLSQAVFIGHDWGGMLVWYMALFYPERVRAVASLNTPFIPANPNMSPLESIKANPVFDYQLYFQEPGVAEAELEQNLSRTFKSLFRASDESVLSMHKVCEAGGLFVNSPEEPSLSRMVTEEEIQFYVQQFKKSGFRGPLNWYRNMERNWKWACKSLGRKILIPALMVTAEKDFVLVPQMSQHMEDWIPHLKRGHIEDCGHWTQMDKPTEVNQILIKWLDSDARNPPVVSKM", "test": "Inhibition of sEH, assay not specified", "assay_type": "biochemical", "text": "“Soluble epoxide hydrolase” (“sEH”) is an epoxide hydrolase which in endothelial and smooth muscle cells converts EETs to dihydroxy derivatives called dihydroxyeicosatrienoic acids (“DHETs”). The cloning and sequence of the murine sEH is set forth in Grant et al., J. Biol. Chem. 268(23):17628-17633 (1993). The cloning, sequence, and accession numbers of the human sEH sequence are set forth in Beetham et al., Arch. Biochem. Biophys. […] The amino acid sequence of human sEH is SEQ ID NO.:1, while the nucleic acid sequence encoding the human sEH is SEQ ID NO.:2. […] Unless otherwise specified, as used herein, the terms “soluble epoxide hydrolase” and “sEH” refer to human sEH.\nDerivatives of urea are transition state mimetics that form a preferred group of sEH inhibitors. […] Any particular urea derivative or other compound can be easily tested for its ability to inhibit sEH by standard assays, such as those discussed herein. The production and testing of urea and carbamate derivatives as sEH inhibitors is set forth in detail in, for example, Morisseau et al., Proc Natl Acad Sci (USA) 96:8849-8854 (1999).\nAny of a number of standard assays for determining epoxide hydrolase activity can be used to determine inhibition of sEH. […] Suitable in vitro assays are described in Zeldin et al., J Biol. Chem. 268:6402-6407 (1993). […]"}, "healthy rats [1]": {"test_system": "healthy rats", "test": "Intraplantar tunicamycin (Tm) induced pain model, mechanical withdrawal", "assay_type": "in vivo, rat", "method": "(§1) FIGS. 7A-F illustrate that ER stress inducer tunicamycin (Tm) is rapid, intense and selective in generating pain behavior. (A) Tm is administered into the midsection of one hind paw in a volume of 10 μL (20 μg). Mechanical withdrawal of ipsi- and contralateral paws are then monitored over a period of 6 h until the ipsilateral paw measurements returned to baseline values. The withdrawal data are presented as gram force required for inducing a withdrawal reflex response. (B) Decreasing doses of Tm generated less intense allodynia which subsided faster than the highest dose. […] (D) Intraplantar Tm induced pain is reversible with sEH inhibitor (lh prior to Tm, i.p. administration) in a dose dependent manner. (E) Expectedly this pain is reversible with chemical chaperone 4-PBA. The basis for the increase above the baseline threshold in this group is not investigated."}, "healthy rats [2]": {"test_system": "healthy rats", "test": "von Frey mechanical withdrawal threshold in healthy rats", "details": "4-PBA 40 mg/kg", "quoted_text": "Standard nociceptive measurements were performed in all experiments. For the von Frey test an electronic rigid tip instrument was used (IITC, Woodland Hills Calif.). For the thermal nociceptive thresholds the modified Hargreaves' method was used. The baseline withdrawal thresholds before STZ administration were taken as 100% response and all mean nociceptive thresholds were converted to percentage values. Inhibitors were administered by intraperitoneal route after completely dissolving in vehicle PEG400 (1 mL/kg)."}, "type I diabetic rats": {"test_system": "type I diabetic rats", "test": "STZ induced type I diabetic rat neuropathic pain model, electronic von Frey test", "details": "for Drug reduction index: combination of 4-PBA and TPPU, CompuSyn", "quoted_text": "Data are presented as mean±SEM in all subsequent figures throughout the text.\n(B) The CompuSyn software was used to construct an isobologram of the interaction. ED50 values calculated for each drug are plotted on x and y-axis respectively. […] (C) Combination index (CI) is reported as the key parameter of the synergistic interaction.\nStandard nociceptive measurements were performed in all experiments. For the von Frey test an electronic rigid tip instrument was used (IITC, Woodland Hills Calif.). […] The baseline withdrawal thresholds before STZ administration were taken as 100% response and all mean nociceptive thresholds were converted to percentage values. Inhibitors were administered by intraperitoneal route after completely dissolving in vehicle PEG400 (1 mL/kg).\nResults are depicted as mean±SEM. CompuSyn software package was used to quantify the synergy between drugs."}, "healthy rats [3]": {"test_system": "healthy rats", "test": "Intraplantar dimethylcelecoxib (DMCx) induced pain model", "assay_type": "in vivo, rat", "method": "FIGS. 9A-C illustrate that mechanistically different ER stress inducer dimethylcelecoxib (DMCx) generates a rapid and intense but sEHI and cox-2 inhibitor reversible pain phenotype. (A) DMCx is administered into the midsection of one hind paw in a volume of 10 μL (20 μg). Mechanical withdrawal of ipsi- and contralateral paws are then monitored over a period of 4 h. The withdrawal data are presented as gram force required for inducing a withdrawal reflex response. (B) Intraplantar DMCx induced pain is reversible with sEH inhibitor (1 h prior to Tm, i.p. administration) in a dose dependent manner."}, "healthy rats [4]": {"test_system": "healthy rats", "test": "Intraplantar Tm, thermal withdrawal threshold (modified Hargreaves' test)", "assay_type": "in vivo, rat", "method": "as §1"}}, "note": "“Also recorded” adds a separate entry of the source."}
{"compound": "CCCCCCCCCCCCNC(=O)NC12CC3CC(CC(C3)C1)C2", "note": "[ADU, N-Adamantyl-N′-dodecyl urea]", "values": [{"measurement": "Activity on sEH", "setting": "sEH", "value": "particularly high activity"}]}
{"compound": "O=C(O)CCCc1ccccc1", "note": "[Compound 4-PBA, 4-phenyl butyric acid]", "values": [{"measurement": "Reversal of Tm induced sensitivity to mechanical stimuli", "setting": "healthy rats [1]; pre-administration i.p. 1 h prior to Tm, celecoxib 30 mg/kg", "value": "reversed; also recorded: reversible"}, {"measurement": "Acute mechanical withdrawal threshold in healthy rats", "setting": "healthy rats [2]", "value": "not antinociceptive; also recorded: does not result in change of acute mechanical withdrawal threshold"}, {"measurement": "Drug reduction index", "setting": "type I diabetic rats; at ED50", "value": 2.2, "unit": "fold"}, {"measurement": "Drug reduction index", "setting": "type I diabetic rats; at ED97", "value": 3.9, "unit": "fold"}, {"measurement": "Allodynia / antinociception (von Frey withdrawal threshold)", "setting": "type I diabetic rats; diabetic rats, i.p., 4-PBA 10-100 mg/kg, TPPU 0.01-1 mg/kg", "value": "dose and time dependent antinociception occurs within minutes; also recorded: reduce allodynia in a dose and time dependent manner"}, {"measurement": "Antinociceptive efficacy at the highest dose", "setting": "type I diabetic rats; diabetic rats, systemic delivery, highest dose", "value": "full efficacy and rapid onset"}, {"measurement": "Effect on pain-related behavior at 10 mg/kg", "setting": "type I diabetic rats; type I diabetic rats, 10 mg/kg, 6 h time period", "value": "ineffective"}]}
{"compound": "Cc1ccc(C)c(-c2cc(C(F)(F)F)nn2-c2ccc(S(N)(=O)=O)cc2)c1", "note": "[DMCx, dimethyl-celecoxib]", "values": [{"measurement": "Swelling after intraplantar administration", "setting": "healthy rats [3]", "value": "Swelling of the ipsilateral paw"}]}
{"compound": "tunicamycin [Tm]", "values": [{"measurement": "Induction of pain by intraplantar administration", "setting": "healthy rats [1]; hind paw of healthy rats", "value": "induce a significant degree of pain"}, {"measurement": "Swelling after intraplantar administration", "setting": "healthy rats [1]; intraplantar Tm", "value": "Minimal amount of swelling"}, {"measurement": "Mechanical withdrawal threshold after Tm", "setting": "healthy rats [1]; intraplantar, 20 μg, ipsilateral paw", "value": "25 % of the baseline levels"}, {"measurement": "Heat responses / thermal withdrawal threshold of the ipsilateral paw", "setting": "healthy rats [4]", "value": "rapid and sustained loss of heat responses; also recorded: notable increase in thermal withdrawal threshold"}]}
